{"source": "patent US20200352878A1", "about": "“USE OF CANNABINOIDS IN THE TREATMENT OF EPILEPSY” (priority 2018, published 2020)", "key": {"[1]": {"test_system": "convulsive seizures in patients with treatment-resistant Dravet syndrome", "assay": "Clinical trial of adjunctive CBD in treatment-resistant Dravet syndrome; analysis of the interaction with concomitant AEDs", "format": "in vivo, human", "details": "for Percentage of patients with greater than 50% reduction in seizures: Dravet syndrome patients aged 2-18 years, convulsive seizures over treatment period vs 4-week baseline, CBD 20 mg/kg/day or placebo added to current AEDs", "method": "Following completion of a 4-week baseline period, patients were randomized to receive either 20 mg/kg/day CBD (n=61) or placebo (n=59). CBD or placebo were added to their current anti-epileptic treatment which remained stable over the treatment period of the study.\nSeizure counts were reported daily via an Interactive Voice Response System. Convulsive seizures were defined as all countable atonic, tonic, clonic, and tonic-clonic seizures. The primary efficacy end point was percent change from baseline in convulsive seizures.\nDuring a 4-week baseline period, patients were required to have at least 4 convulsive seizures (tonic-clonic, clonic, tonic or atonic) while on stable AED therapy. Patients had previously failed a median of 4 prior AEDs and 93% were taking 2 or more concomitant AEDs during the trial. The most commonly used concomitant AEDs (>25% of patients) were clobazam, valproate, stiripentol, levetiracetam, and topiramate.\nFollowing the trial statistical analysis was performed on the various patient groups to determine whether there was an interaction between any of the concomitant AEDs that the patients were taking.\nTable 6 below describes the percentage of patients that recorded a 50% reduction in convulsive seizures over the treatment period."}, "[2]": {"assay": "Open-label, fixed sequence healthy volunteer drug-drug interaction trial of CBD and stiripentol (steady-state pharmacokinetics, safety)", "format": "in vivo, human", "details": "healthy volunteers", "method": "As part of an open-label, fixed sequence, healthy volunteer trial the primary objective was to investigate the impact of CBD (750 mg twice daily) on the steady-state pharmacokinetics of stiripentol (STP) (750 mg) and the reciprocal effect on CBD, 7-hydroxy-cannabidiol (7-OH-CBD) and 7-carboxy-cannabidiol (7-COOH-CBD).\nAnalyte plasma concentrations were determined using validated bioanalytical methods. A secondary objective was to evaluate the safety and tolerability of CBD when co-administered with STP."}, "[3]": {"details": "CBD 750 mg twice daily, STP 750 mg, plasma"}}}
{"compound": "CC(C)(C)C(O)/C=C/c1ccc2c(c1)OCO2", "note": "(stereo not shown) [Stiripentol, stiripentol]", "values": [{"measurement": "Percentage of patients with greater than 50% reduction in seizures", "setting": "[1]", "result": 14, "unit": "%"}, {"measurement": "Percentage of patients with greater than 50% reduction in seizures", "setting": "[1]; listed as stiripentol", "result": 14, "unit": "%"}]}
{"compound": "C=C(C)[C@@H]1CCC(C(=O)O)=C[C@H]1c1c(O)cc(CCCCC)cc1O", "note": "[7-COOH-CBD, 7-carboxy-cannabidiol]", "values": [{"measurement": "reduction of exposure by co-administered STP", "setting": "[2]; [3]", "result": 13, "unit": "%"}]}
{"compound": "C=C(C)[C@@H]1CCC(CO)=C[C@H]1c1c(O)cc(CCCCC)cc1O", "note": "[7-OH-CBD, 7-hydroxy-cannabidiol]", "values": [{"measurement": "reduction of exposure by co-administered STP", "setting": "[2]; [3]", "result": 29, "unit": "%"}]}
{"compound": "C=C(C)[C@@H]1CCC(C)=C[C@H]1c1c(O)cc(CCCCC)cc1O", "note": "[CBD, cannabidiol]", "values": [{"measurement": "median percent change from baseline in reduction of convulsive seizures, compared with placebo", "setting": "[1]; CBD 20 mg/kg/day group (n=61) vs placebo (n=59), p=0.0123", "result": "statistically superior to placebo"}, {"measurement": "effect of co-administration of STP on CBD exposure", "setting": "[2]; [3]", "result": "no effect"}, {"measurement": "most common adverse event (AE)", "setting": "[2]; CBD co-administered with STP", "result": "diarrhoea"}]}
